PubChem BioAssay AID743479 (Broad Institute, 2014)
Records with an inconclusive call do not appear. Activity calls are given as the source filed them.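 The calls were made as follows: active = fitted curve crosses 35% inhibition of luciferase signal below 10 µM, corrected for cell viability; inconclusive = no clear call, values can overlap the other calls; inactive = activity opposite to the expected decrease, otherwise the rest.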

System: not listed separately
Assay: inhibitors of EWS/FLI-driven NR0B1 reporter expression, dose response, luciferase luminescence, A673 cells, dry powder (AID 743479)
Conditions: A673 NR0B1-luciferase reporter, viability-normalised luminescence; at 4.2 µM (top of the series)

Q: Which activity change, negative = inhibition does the source give for `CCN(CCO)CCCOc1ccc2c(Nc3cc(CC(=O)Nc4cccc(F)c4)[nH]n3)ncnc2c1` here?
A: 0.506% (inactive)

Same assay, conditions: A673 NR0B1-luciferase reporter, viability-normalised luminescence; at 6.8 µM (top of the series)

Q: For `C=C([C@@H](O)[C@@H](C)O)[C@@H](OC)[C@]1(C)Cc2cc3cc(O[C@H]4CC(OC5CC(O)C(O)C(C)O5)C(O)C(C)O4)cc(O)c3c(O)c2C(=O)[C@H]1OC1CC(OC2CC(OC3CC(C)(O)C(O)C(C)O3)C(O)C(C)O2)C(O)C(C)O1` (stereo not given in full), which activity change, negative = inhibition is on record?
A: 12.4% (inactive)

Same assay, conditions: A673 NR0B1-luciferase reporter, viability-normalised luminescence; at 16 µM (top of the series)

Q: Which activity change, negative = inhibition does the source give for `Clc1ccc(-c2cnc3ccc(-c4ccccc4)cn23)cc1` here?
A: 38.6% (inactive)

Same assay, conditions: A673 NR0B1-luciferase reporter, viability-normalised luminescence; at 68 µM (top of the series)

Q: Which activity change, negative = inhibition does the source give for `COc1ccc(-c2cc(NC(C)=O)c3ncc(-c4ccc(OC)c(OC)c4)n3c2)cc1` here?
A: -21.4% (inactive)

Q: Which activity change, negative = inhibition does the source give for `C[C@]1(c2nc3c(C(N)=O)cccc3[nH]2)CCCN1` here?
A: -14.9% (inactive)

Q: With `CCCCc1ccc2nc(NC(=O)OC)[nH]c2c1` as the molecule, how does the activity change, negative = inhibition read?
A: -8.52% (inactive)

Q: Which activity change, negative = inhibition does the source give for `COc1cc(Nc2ncc3c(n2)-c2ccc(Cl)cc2C(c2c(F)cccc2OC)=NC3)ccc1C(=O)O` here?
A: 114% (inactive)

Q: With `COc1ccc(C2CNC(=O)C2)cc1OC1CCCC1` (stereo not given) as the molecule, how does the activity change, negative = inhibition read?
A: -4.33% (inactive)

Same assay, conditions: A673 NR0B1-luciferase reporter, viability-normalised luminescence; at 135 µM (top of the series)

Q: With `O=P1(NCCCl)OCCCN1CCCl` (stereo not given) as the molecule, how does the activity change, negative = inhibition read?
A: 11.8% (inactive)

System: A673 NR0B1-luciferase reporter, viability-normalised luminescence
Assay: as above
Conditions: not given

Q: Which AC35 does the source give for `COc1ccc(-c2ccc3c(c2)[C@H]2[C@H](CCN2S(=O)(=O)c2ccc(OC)cc2)[C@@H](CO)N3)cc1` here?
A: 3.57 µM

Q: With `COc1ccc(OC)c(-c2nnc3n2N=C(c2ccc(OC)c(OC)c2)CS3)c1` as the molecule, how does the AC35 read?
A: 0.0319 µM

Q: With `COc1ccccc1C1C(C#N)=C(N)Oc2cc(N)ccc21` (stereo not given) as the molecule, how does the AC35 read?
A: 53.1 µM

Q: With `N#Cc1ccc(-c2ccc3c(c2)[C@H]2[C@H](CCN2S(=O)(=O)c2cccc(F)c2)[C@@H](CO)N3)cc1` as the molecule, how does the AC35 read?
A: 4.95 µM

Q: Which AC35 does the source give for `CN1CCN(CCOc2cc(OC3CCOCC3)c3c(Nc4c(Cl)ccc5c4OCO5)ncnc3c2)CC1` here?
A: 17.3 µM

Q: Which AC35 does the source give for `Cc1cc(Nc2cc(N3CCN(C)CC3)nc(Sc3ccc(NC(=O)C4CC4)cc3)n2)n[nH]1` here?
A: 39.5 µM

Q: For `N#CC1=C(N)Oc2cc(N)ccc2C1c1cccc(F)c1` (stereo not given), which AC35 is on record?
A: 1.2 µM

Q: Which AC35 does the source give for `COC(=O)c1ccc(C2C(C#N)=C(N)Oc3cc(N)ccc32)cc1` (stereo not given) here?
A: 40.2 µM

Q: With `N#CC1=C(N)Oc2cc3c(cc2C1c1cccc(Br)c1)OCO3` (stereo not given) as the molecule, how does the AC35 read?
A: 0.0564 µM

Q: Which AC35 does the source give for `COc1cccc(C2C(C#N)=C(N)Oc3cc(N)ccc32)c1` (stereo not given) here?
A: 0.629 µM

Q: For `COc1ccc(S(=O)(=O)N2CC[C@@H]3[C@@H](CO)Nc4ccc(-c5ccc(C#N)cc5)cc4[C@@H]32)cc1`, which AC35 is on record?
A: 3.37 µM

Q: Which AC35 does the source give for `O=C(Nc1c(Cl)cncc1Cl)c1ccc(OC(F)F)c(OCC2CC2)c1` here?
A: 56.9 µM

Q: For `COc1cc([C@@H]2c3cc4c(cc3[C@@H](O[C@@H]3O[C@@H]5CO[C@@H](C)O[C@H]5[C@H](O)[C@H]3O)[C@H]3COC(=O)[C@H]23)OCO4)cc(OC)c1O`, which AC35 is on record?
A: 3.01 µM

Q: With `CN1c2ccc(-c3ccc(C#N)cc3)cc2[C@H]2[C@H](CCN2S(=O)(=O)c2cccc(F)c2)[C@H]1CO` as the molecule, how does the AC35 read?
A: 2.35 µM

Q: Which AC35 does the source give for `N#CC1=C(N)Oc2cc(N)ccc2C1c1ccccc1Cl` (stereo not given) here?
A: 26.6 µM

Q: For `N#CC1=C(N)Oc2cc(N)ccc2C1c1cccc(Br)c1` (stereo not given), which AC35 is on record?
A: 0.223 µM

Q: For `Cc1cccc(C2C(C#N)=C(N)Oc3cc(N)ccc32)c1` (stereo not given), which AC35 is on record?
A: 0.705 µM

Q: For `Cn1cc(-c2ccncc2)c(-c2ccc(OCc3ccc4ccccc4n3)cc2)n1`, which AC35 is on record?
A: 51.7 µM

Q: For `Cc1ccccc1C1C(C#N)=C(N)Oc2cc(N)ccc21` (stereo not given), which AC35 is on record?
A: 40.9 µM

Q: With `COc1ccc(NC(=O)Nc2ccc3c(c2)C(=O)N([C@@H](C)CO)C[C@H](C)[C@H](CN(C)Cc2ccc4c(c2)OCO4)O3)cc1` as the molecule, how does the AC35 read?
A: 18.8 µM

Q: Which AC35 does the source give for `COc1ccccc1S(=O)(=O)N1CC[C@@H]2[C@@H](CO)Nc3ccc(-c4ccc(C#N)cc4)cc3[C@@H]21` here?
A: 15.5 µM

Q: For `COc1ccc(CNc2nc(N3CCC[C@H]3CO)ncc2C(=O)NCc2ncccn2)cc1Cl`, which AC35 is on record?
A: 45.2 µM

Q: With `O=C(c1cc(Cc2n[nH]c(=O)c3ccccc23)ccc1F)N1CCN(C(=O)C2CC2)CC1` as the molecule, how does the AC35 read?
A: 238 µM

Q: For `COc1ccc(C2=Nn3c(nnc3-c3ccccc3F)SC2)cc1OC`, which AC35 is on record?
A: 11.5 µM

Q: Which AC35 does the source give for `COc1ccc(C2=Nn3c(nnc3-c3ccccc3Cl)SC2)cc1OC` here?
A: 0.69 µM

Q: For `CN(C(=O)CCCOc1ccc2[nH]c(=O)ccc2c1)C1CCCCC1`, which AC35 is on record?
A: 49.6 µM

Q: With `COc1ccc(C2=Nn3c(nnc3-c3ccccc3OC)SC2)cc1OC` as the molecule, how does the AC35 read?
A: 0.131 µM

Q: With `Cc1nc(Nc2ncc(C(=O)Nc3c(C)cccc3Cl)s2)cc(N2CCN(CCO)CC2)n1` as the molecule, how does the AC35 read?
A: 18.9 µM

Q: For `CC(C)N1c2ccccc2C(c2ccc(F)cc2)C1/C=C/C(O)CC(O)CC(=O)O` (stereo not given), which AC35 is on record?
A: 7.59 µM

Q: Which AC35 does the source give for `COc1cc(C2C(C#N)=C(N)Oc3cc(N(C)C)ccc32)cc2c1OCO2` (stereo not given) here?
A: 0.186 µM

Q: Which AC35 does the source give for `CCC(C)(C)C(=O)O[C@H]1C[C@@H](C)C=C2C=C[C@H](C)[C@H](CC[C@@H]3C[C@@H](O)CC(=O)O3)[C@H]21` here?
A: 55 µM

Q: With `N#Cc1ccc(-c2ccc3c(c2)[C@H]2[C@H](CCN2S(=O)(=O)c2ccccc2F)[C@@H](CO)N3)cc1` as the molecule, how does the AC35 read?
A: 7.82 µM

Q: Which AC35 does the source give for `N#CC1=C(N)Oc2cc(N)ccc2C1c1ccc2ccccc2c1` (stereo not given) here?
A: 19.4 µM

Q: Which AC35 does the source give for `CC1(C)CC(c2nc(-c3ccc4ccc(-c5ccccc5)nc4c3)c3c(N)nccn23)C1` here?
A: 37.9 µM

Q: With `CCc1c2c(nc3ccc(O)cc13)-c1cc3c(c(=O)n1C2)COC(=O)C3(O)CC` (stereo not given) as the molecule, how does the AC35 read?
A: 0.00781 µM

Q: With `COc1ccc(S(=O)(=O)N2CC[C@@H]3[C@@H](CO)N(C)c4ccc(-c5ccc(F)cc5)cc4[C@@H]32)cc1` as the molecule, how does the AC35 read?
A: 2.85 µM

Q: For `Cc1ccc(S(=O)(=O)N2CC[C@@H]3[C@@H](CO)Nc4ccc(-c5ccc(C#N)cc5)cc4[C@@H]32)cc1`, which AC35 is on record?
A: 17.2 µM

Q: Which AC35 does the source give for `COc1ccc(-c2ccc3c(c2)[C@H]2[C@H](CCN2S(=O)(=O)c2ccc(OC)cc2)[C@@H](CO)N3C)cc1` here?
A: 4.43 µM

Q: For `COc1ccc(C(=O)CC2(O)C(=O)Nc3c(Cl)ccc(Cl)c32)cc1` (stereo not given), which AC35 is on record?
A: 3.21 µM

Q: With `Cc1ccc(C2C(C#N)=C(N)Oc3cc(N)ccc32)cc1` (stereo not given) as the molecule, how does the AC35 read?
A: 54.6 µM

Q: With `COc1ccccc1-c1nnc2n1N=C(c1ccc(O)c(O)c1)CS2` as the molecule, how does the AC35 read?
A: 3.93 µM

Q: Which AC35 does the source give for `N#CC1=C(N)Oc2cc(N)ccc2C1c1ccccc1` (stereo not given) here?
A: 16.6 µM

Q: Which AC35 does the source give for `N#CC1=C(N)Oc2ccc3ccccc3c2C1c1cccc(F)c1` (stereo not given) here?
A: 0.968 µM

Q: With `COc1cccc2c1C(=O)c1c(O)c3c(c(O)c1C2=O)C[C@@](O)(C(=O)CO)C[C@@H]3O[C@H]1C[C@H](N)[C@H](O)[C@H](C)O1` as the molecule, how does the AC35 read?
A: 15.1 µM

Q: For `COc1ccccc1-c1nnc2n1N=C(c1ccc3c(c1)OCO3)CS2`, which AC35 is on record?
A: 0.0242 µM

Q: Which AC35 does the source give for `N#CC1=C(N)Oc2cc(N)ccc2C12C(=O)Nc1ccc(Br)cc12` (stereo not given) here?
A: 43.3 µM

Q: For `N#CC1=C(N)Oc2cc(N)ccc2C1c1ccc(Cl)cc1` (stereo not given), which AC35 is on record?
A: 43 µM

Q: For `CN(C)c1ccc2c(c1)OC(N)=C(C#N)C2c1cccc(F)c1` (stereo not given), which AC35 is on record?
A: 0.0309 µM

Q: For `COc1cccc(S(=O)(=O)N2CC[C@@H]3[C@@H](CO)Nc4ccc(-c5ccc(C#N)cc5)cc4[C@@H]32)c1`, which AC35 is on record?
A: 28.5 µM

Q: For `CCOC(=O)CCNc1cc(N2CCc3ccccc3CC2)nc(-c2ccccn2)n1`, which AC35 is on record?
A: 32.8 µM

Q: For `COc1ccc(C2C(C#N)=C(N)Oc3cc(N)ccc32)cc1` (stereo not given), which AC35 is on record?
A: 53.2 µM

Q: With `Cc1ccc([N+](=O)[O-])cc1S(=O)(=O)N(C)C` as the molecule, how does the AC35 read?
A: 59.7 µM

Q: For `COc1ccc(-c2cc(NC=O)c3ncc(-c4ccc(OC)c(OC)c4)n3c2)cc1`, which AC35 is on record?
A: 0.778 µM

Q: For `N#CC1=C(N)Oc2cc(OC(=O)c3ccccc3)ccc2C1c1cccc(Br)c1` (stereo not given), which AC35 is on record?
A: 3.55 µM

Q: Which AC35 does the source give for `C[C@@]1(C(=O)Nc2ccc(F)nc2)CCCN1c1nc(Nc2cc(C3CC3)[nH]n2)c2cccn2n1` here?
A: 2.9 µM

Q: Which AC35 does the source give for `COc1ccc(S(=O)(=O)N2CC[C@@H]3[C@@H](CO)Nc4ccc(-c5cccc(C#N)c5)cc4[C@@H]32)cc1` here?
A: 4.71 µM

Q: With `COc1ccc(S(=O)(=O)N2CC[C@@H]3[C@H](CO)Nc4ccc(-c5ccc(C#N)cc5)cc4[C@@H]32)cc1` as the molecule, how does the AC35 read?
A: 8.44 µM

Q: With `Clc1ccccc1-c1nnc2n1N=C(c1ccc3c(c1)OCO3)CS2` as the molecule, how does the AC35 read?
A: 0.75 µM

Q: With `CCC(C)C(=O)OC1CC(C)C=C2C=CC(C)C(CCC(O)CC(O)CC(=O)O)C21` (stereo not given) as the molecule, how does the AC35 read?
A: 55.5 µM

Q: For `N#CC1=C(N)Oc2cc(O)ccc2C1c1cccc(Br)c1` (stereo not given), which AC35 is on record?
A: 2.2 µM

Q: With `CN1c2ccc(-c3ccc(C#N)cc3)cc2[C@H]2[C@H](CCN2S(=O)(=O)c2ccc(F)cc2)[C@H]1CO` as the molecule, how does the AC35 read?
A: 33.6 µM

Q: For `Nc1ncnc2c1c(-c1cccc(OCc3ccccc3)c1)cn2C1CC(CN2CCCC2)C1` (stereo not given), which AC35 is on record?
A: 17.3 µM

Q: For `COc1ccc(S(=O)(=O)N(C(C)=O)c2ccc(OC(C)=O)c3ccccc23)cc1[N+](=O)[O-]`, which AC35 is on record?
A: 2.81 µM

Q: With `CC[C@@]1(O)C(=O)OCc2c1cc1n(c2=O)Cc2cc3c(CN(C)C)c(O)ccc3nc2-1` as the molecule, how does the AC35 read?
A: 0.112 µM

Q: For `Nc1ccn([C@@H]2O[C@H](CO)[C@H](O)C2O)c(=O)n1` (stereo not given in full), which AC35 is on record?
A: 1.26 µM

Q: For `COc1ccc(C2=Nn3c(nnc3-c3ccccc3)SC2)cc1OC`, which AC35 is on record?
A: 42.7 µM
